What was measured:
[1] = ABTS radical scavenging assay; conditions: mean ± SD (n = 3); NA = not active (<50% radical scavenging activity at the highest testing concentration of 200 μM); read-out: ABTS free radical scavenging activity IC50
Method: The antioxidant effect of the VBL constituents was assessed by besting their free radical scavenging activity with the ABTS (diammonium 2,2′-azino-bis (3-ethylbenzothiazoline-6-sulphonate) and DPPH (1,1-diphenyl-2-picrylhydrazyl) methods, according to the protocols described previously [10], and ascorbic acid was used as the positive control.

[2] = tested on: NO production in RAW264.7 macrophages; test: NO production inhibitory assay, lipopolysaccharide-induced macrophages; assay type: cell-based; conditions: Mus musculus, lipopolysaccharide-induced murine macrophages, read-out: NO production inhibition IC50
Method: The nitric oxide (NO) production inhibitory assay was conducted in murine RAW264.7 macrophages as we recorded in an early report, with quercetin as the reference compound.

[3] = DPPH radical scavenging assay; conditions: mean ± SD (n = 3); NA = not active (<50% radical scavenging activity at the highest testing concentration of 200 μM); read-out: DPPH free radical scavenging activity IC50
Method: The antioxidant effect of the VBL constituents was assessed by besting their free radical scavenging activity with the ABTS (diammonium 2,2′-azino-bis (3-ethylbenzothiazoline-6-sulphonate) and DPPH (1,1-diphenyl-2-picrylhydrazyl) methods, according to the protocols described previously, and ascorbic acid was used as the positive control.

PC12 cells = test: Neuroprotective assay: 6-OHDA-induced PC12 cell injury, MTT; assay type: cell-based; conditions: for Neuroprotective effect against 6-OHDA-induced PC12 cell injury (cell viability): pretreated 12 h, 6-OHDA 150 μM for 13 h
Method: The cell cultures were prepared according to the method described by Sergi et al.. Briefly, the protection of compounds 1–8 on 6-hydroxydopamine (6-OHDA)-induced PC 12 cell injury was assessed by MTT (3-(4,5-dimethylthiazol-2-yl)-2,5-diphenyltetrazolium bromide) assay, and N-acetylcysteine (NAC, 50 μM) was used as the positive control. PC12 cells were cultured in RPMI 1640 medium supplemented with 10% fetal bovine serum (FBS), and they were incubated at 37
C in a humidified environment containing 5% CO2 and then cultured in 96-well plates at a density of 1.5 × 10^5 cells/well in 100 μL for 24 h. The neuron cells were first pretreated with various concentrations (25, 50, 100 μM) of tested compounds for 12 h before 6-OHDA (150 μM) treatment for further 13 h. Then, 10 μL of MTT was added to each well and incubated for another 4 h, and the crystals were dissolved with DMSO. The optical density at 490 nm was detected by a plate reader. The cell viability was lastly measured to evaluate the compounds’ protective effect, which was expressed as the percentage of the control group.

COc1cc([C@@H]2Oc3c(OC)cc(CCCO)cc3[C@H]2CO)ccc1O [Compound 14b, dihydrodehydrodiconiferyl alcohol]
IC50 [1]: 14.1 ± 1.3 µM

COc1ccc([C@@H]2Oc3c(O)cc(CCCO)cc3[C@H]2CO)cc1OC [Compound 13b, 4-O-methylcedrusin]
IC50 [1]: 37.1 ± 8.17 µM

COc1cc([C@@H]2Oc3c(OC)cc(CCCO)cc3[C@H]2CO)ccc1O [Compound 14a, dihydrodehydrodiconiferyl alcohol]
IC50 [1]: 12.3 ± 1.82 µM
IC50 [2]: 52.2 ± 6.17 µM

COc1cc([C@@H](O)[C@H](CO)Oc2ccc(CCCO)cc2OC)ccc1O [Compound 10b, erythro-4,7,9,9′-tetrahydroxy-3,3′-dimethoxy-8,4′-oxyneolignane]
IC50 [1]: 16.2 ± 2.65 µM

COc1cc(C2OC(c3cc(OC)c(O)c(OC)c3)C(CO)C2CO)cc(OC)c1O (stereo not shown) [Compound 18a, icariol A2]
IC50 [3]: 17.3 ± 7.51 µM
IC50 [1]: 6.87 ± 0.54 µM

CO[C@H]1C[C@H]2C=C[C@](O)(COC(=O)/C=C/c3ccc(O)cc3)[C@H]2[C@H](OC)O1 [Compound 7]
IC50 [1]: 50.6 ± 2.97 µM
Neuroprotective effect against 6-OHDA-induced PC12 cell injury (cell viability) (PC12 cells; compound 50 μM): apparent protective activity

O=C1O[C@H]([C@@H](O)CO)C(O)=C1O [Ascorbic acid, ascorbic acid, reference compound]
IC50 [3]: 13.3 ± 1.86 µM
IC50 [1]: 24.3 ± 0.41 µM

COc1cc(C2OC(c3ccc(O)c(OC)c3)C(CO)C2CO)ccc1O (stereo not shown) [Compound 17a, neo-olivil]
IC50 [3]: 40.8 ± 5.98 µM
IC50 [1]: 5.96 ± 0.3 µM

O=C(/C=C\c1ccc(O)cc1)OC[C@@]12C[C@@H](O)[C@@H]3C[C@@H](O[C@@H](O)[C@@H]31)O2 [Compound 4]
IC50 [1]: 19.4 ± 0.24 µM

COc1cc([C@H]2Oc3c(OC)cc(CCCO)cc3[C@@H]2CO)cc(OC)c1O [Compound 15a, 5-methoxydihydrodehydrodiconiferyl alcohol]
IC50 [3]: 40.4 ± 6.09 µM
IC50 [1]: 17.2 ± 0.89 µM

COc1cc(C2c3c(cc(OC)c(O)c3OC)CC(CO)C2CO)cc(OC)c1O (stereo not shown) [Compound 16b, polystachyol]
IC50 [3]: 96.2 ± 8.34 µM
IC50 [1]: 26.2 ± 2.24 µM

COc1cc([C@H]2Oc3c(O)cc(CCCO)cc3[C@@H]2CO)ccc1O [Compound 12a, cedrusin]
IC50 [3]: 31.2 ± 1.9 µM
IC50 [1]: 9.54 ± 0.64 µM

COc1cc([C@@H]2Oc3c(O)cc(CCCO)cc3[C@H]2CO)ccc1O [Compound 12b, cedrusin]
IC50 [3]: 44.3 ± 2.05 µM
IC50 [1]: 12.3 ± 0.24 µM

O=C(/C=C/c1ccc(O)cc1)OC[C@@]12C[C@@H](O)[C@@H]3C[C@@H](O[C@@H](O)[C@@H]31)O2 [Compound 3]
IC50 [1]: 35.6 ± 1.04 µM

NCCc1cc(O)c(O)cc1O [Compound 6-OHDA, 6-hydroxydopamine, reference compound]
Inhibition ratio of PC12 cell viability (6-OHDA-induced cell injury) (PC12 cells; 6-OHDA at 150 μM): 52.68%

COc1cc(C2OC(c3cc(OC)c(O)c(OC)c3)C(CO)C2CO)cc(OC)c1O (stereo not shown) [Compound 18b, icariol A2]
IC50 [3]: 17.9 ± 4.58 µM

COc1ccc([C@H]2Oc3c(O)cc(CCCO)cc3[C@@H]2CO)cc1OC [Compound 13a, 4-O-methylcedrusin]
IC50 [1]: 21.7 ± 3.5 µM

CO[C@H]1C[C@@H]2[C@H]([C@H](OC)O1)[C@@](O)(COC(=O)/C=C\c1ccc(O)cc1)C[C@H]2O [Compound 6]
IC50 [1]: 28.2 ± 0.63 µM
Neuroprotective effect against 6-OHDA-induced PC12 cell injury (cell viability) (PC12 cells; compound 50 μM): apparent protective activity

COc1cc(C2c3c(cc(OC)c(O)c3OC)CC(CO)C2CO)cc(OC)c1O (stereo not shown) [Compound 16a, polystachyol]
IC50 [3]: 47.9 ± 6.6 µM
IC50 [1]: 11.1 ± 3.31 µM

COC1OC2CC3C(O)CC(COC(=O)C=Cc4ccc(O)cc4)(O2)C13 (stereo not shown) [Compound 1]
IC50 [1]: 15.3 ± 1.37 µM
Neuroprotective effect compared with the positive control NAC (PC12 cells; compound 50 μM, NAC 50 μM, 6-OHDA 150 μM): comparable to the positive control NAC
Neuroprotective effect against 6-OHDA-induced PC12 cell injury (cell viability) (PC12 cells; compound 50 μM): apparent protective activity

COc1cc([C@@H](O)[C@@H](CO)Oc2ccc(CCCO)cc2OC)ccc1O [Compound 11a, threo-4,7,9,9′-tetrahydroxy-3,3′-dimethoxy-8,4′-oxyneolignane]
IC50 [3]: 98.7 ± 1.78 µM
IC50 [1]: 12.1 ± 1.42 µM

COC1CC2C(O)CC(O)(COC(=O)C=Cc3ccc(O)cc3)C2C(OC)O1 (stereo not shown) [Compound 8]
IC50 [1]: 39.1 ± 2.3 µM

COc1cc([C@H](O)[C@H](CO)Oc2ccc(CCCO)cc2OC)ccc1O [Compound 11b, threo-4,7,9,9′-tetrahydroxy-3,3′-dimethoxy-8,4′-oxyneolignane]
IC50 [3]: 105 ± 4.11 µM
IC50 [1]: 14.8 ± 1.25 µM

COc1cc(CCCO)cc(OC)c1OC(CO)CO [Compound 22, 3-deoxyartselaenin C]
IC50 [3]: 20.2 ± 3.53 µM
IC50 [1]: 168 ± 4.34 µM

CO[C@@H]1O[C@@H]2C[C@@H]3[C@H]1[C@@](COC(=O)/C=C\c1ccc(O)cc1)(C[C@H]3O)O2 [Compound 2]
IC50 [1]: 34.2 ± 3.03 µM

COc1cc([C@H](O)[C@@H](CO)Oc2ccc(CCCO)cc2OC)ccc1O [Compound 10a, erythro-4,7,9,9′-tetrahydroxy-3,3′-dimethoxy-8,4′-oxyneolignane]
IC50 [1]: 19.7 ± 0.61 µM

COc1cc([C@@H]2Oc3c(OC)cc(CCCO)cc3[C@H]2CO)cc(OC)c1O [Compound 15b, 5-methoxydihydrodehydrodiconiferyl alcohol]
IC50 [3]: 55.1 ± 2.43 µM
IC50 [1]: 24.2 ± 3.92 µM

COC1CC2C(O)CC(O)(COC(=O)C=Cc3ccc(O)cc3)C2C(OC)O1 (stereo not shown) [Compound 5]
IC50 [1]: 32 ± 1.76 µM
Neuroprotective effect against 6-OHDA-induced PC12 cell injury (cell viability) (PC12 cells; compound 50 μM): apparent protective activity

COc1cc(C2OC(c3ccc(O)c(OC)c3)C(CO)C2CO)ccc1O (stereo not shown) [Compound 17b, neo-olivil]
IC50 [3]: 62.9 ± 5.65 µM
IC50 [1]: 7.75 ± 0.71 µM

COc1cc(CCCO)ccc1O[C@@H](CO)[C@H](O)c1cc(OC)c(O)c(OC)c1 [Compound 9a]
IC50 [3]: 47.5 ± 7.24 µM
IC50 [1]: 9.39 ± 0.97 µM

COc1cc(CCCO)ccc1O[C@H](CO)[C@@H](O)c1cc(OC)c(O)c(OC)c1 [Compound 9b]
IC50 [3]: 52.6 ± 6.89 µM
IC50 [1]: 10.1 ± 0.67 µM

Reference: paper PMC9818789, “Identification of Small-Molecule Bioactive Constituents from the Leaves of Vaccinium bracteatum Confirms It as a Potential Functional Food with Health Benefits” (Foods, 2023)
